pKd: −log10 of the molar value.
Legend:
[1] = target: DNA gyrase (Staphylococcus aureus) (UniProt P0A0K8+P20831)
Description: Maximal noneffective concentration for inhibition of DNA gyrase using supercoiling assay.

[2] = test system: Nucleic Acid; test: Maximal noneffective concentration (MNEC) for inhibition of DNA gyrase; type: nucleic-acid assay
[3] = Dissociation constant determined by heteronuclear 1H/15N correlation NMR spectroscopy; type: physicochemical

Compound | MNEC [1] [µg/mL] | MNEC [2] [µg/mL] | pKd [3]
OC(CCCCl)c1cc2ccccc2[nH]1 (stereo not given) | 16 | – | –
NC(=O)Oc1cc([N+](=O)[O-])ccc1CSCc1ccc(Cl)c(Cl)c1 | 31 | – | –
c1ccc(-c2[nH]nc3ccccc23)cc1 | 8 | – | –
c1ccc2[nH]ncc2c1 | – | > 250 | –
Nc1ncncn1 | > 250 | – | 1.22
Nc1ccncn1 | > 250 | – | –
Nc1ncccn1 | > 250 | – | 1.22
O=[N+]([O-])c1ccc2[nH]nc(-c3ccccc3)c2c1 | 63 | – | –
Nc1ccccn1 | > 250 | – | –
N#Cc1cnc(S)nc1N | 16 | – | –

The next lines start with results.

MNEC [1] [µg/mL] | Compound | MNEC [2] [µg/mL] | pKd [3]
8 | Cc1cc(=O)oc2cc(SCc3n[nH]c4ccccc34)ccc12 | – | –
0.05 | Cc1c(O)cc(O)c2c1C(=O)OC[C@H](NC(=O)[C@@H]1[C@H](O)CCN1C(=O)[C@@H](N)CO)C(=O)N[C@H](C(=O)N[C@@H](C)C(=O)O)CSC2 | – | –
31 | Cc1[nH]c2ncnc(Cl)c2c1C | – | –
10 | Cc1csc(NS(=O)(=O)c2ccc(F)cc2F)c1C(N)=O | – | –
0.25 | Cc1cc(=O)oc2cc(SCc3n[nH]c4cccc(OCc5ccccc5)c34)ccc12 | – | –
5 | Oc1ccc(Cl)cc1CNc1ccc(Cl)cc1 | – | –
0.03 | Cc1cc(=O)oc2cc(SCc3n[nH]c4cccc(OCc5ccc(C(C)(C)C)cc5)c34)ccc12 | – | –
31 | CSc1nc(N)nc(SCCN2CCOCC2)n1 | – | –

From ChEMBL document CHEMBL1133769, “Novel inhibitors of DNA gyrase: 3D structure based biased needle screening, hit validation by biophysical methods, and 3D guided optimization. A promising alternative to random screening” (J Med Chem, 2000)
